Experiments:
bone slice resorption = bone slice resorption assay; type: cell-based; conditions: in vitro, qualitative ranking
osteoclast (OC) = osteoclast (OC) inhibitory activity in vitro using mouse bone marrow cells (osteoclast culture); type: cell-based; conditions: for activity in osteoclast culture assay: in vitro, qualitative ranking; for OC numbers: mouse bone marrow cells, vehicle 239+/−17
Method: To determine if these AF-BP structural modifications improved the osteoclast (OC) inhibitory activity, these modifications were tested in vitro using mouse bone marrow cells.

Row | SMILES | activity in bone slice resorption assay (bone slice resorption) | activity in osteoclast culture assay (osteoclast (OC)) | OC numbers (osteoclast (OC); 0.1 uM) | OC numbers (osteoclast (OC); 1 uM) | OC numbers (osteoclast (OC); 10 uM)
1 | O=C(CCNC(=O)c1ccc(-c2c3ccc(=O)cc-3oc3cc(O)ccc23)c(C(=O)O)c1)NCC(O)C[n+]1cccc(CC(O)(P(=O)(O)O)P(=O)(O)O)c1 (centres unmarked) [Compound 13, 1-(3-(3-(3-carboxy-4-(6-hydroxy-1-oxo-3H-xanthen-9-yl)benzamido)propanamido)-2-hydroxypropyl)-3-(2-hydroxy-2,2-diphosphonoethyl)pyridin-1-ium] | most active | most active | – | – | –
2 | O=C(CCNC(=O)c1ccc(C(=O)O)c(-c2c3ccc(=O)cc-3oc3cc(O)ccc23)c1)NCC(O)C[n+]1cccc(CC(O)(P(=O)(O)O)P(=O)(O)O)c1 (centres unmarked) [Compound 14, 1-(3-(3-(4-carboxy-3-(6-hydroxy-3-oxo-3H-xanthen-9-yl)benzamido)propanamido)-2-hydroxypropyl)-3-(2-hydroxy-2,2-diphosphonoethyl)pyridin-1-ium] | most active | most active | – | – | –
3 | O=C(CCOCCOCCOCCOCCNC(=O)c1ccc(-c2c3ccc(=O)cc-3oc3cc(O)ccc23)c(C(=O)O)c1)NCC(O)C[n+]1cccc(CC(O)(P(=O)(O)O)P(=O)(O)O)c1 (centres unmarked) [Compound 21, 1-(1-(3-carboxy-4-(6-hydroxy-3-oxo-3H-xanthen-9-yl)phenyl)-20-hydroxy-1,17-dioxo-5,8,11,14-tetraoxa-2,18-diazahenicosan-21-yl)-3-(2-hydroxy-2,2-diphosphonoethyl)pyridin-1-ium] | most active | most active | – | – | –
4 | O=C(CCOCCOCCOCCOCCNC(=O)c1ccc(C(=O)O)c(-c2c3ccc(=O)cc-3oc3cc(O)ccc23)c1)NCC(O)C[n+]1cccc(CC(O)(P(=O)(O)O)P(=O)(O)O)c1 (centres unmarked) [Compound 22] | most active | most active | – | – | –
5 | O=P(O)(O)C(O)(Cc1cccnc1)P(=O)(O)O [RIS, (1-hydroxy-2-pyridin-3-ylethane-1,1-diyl)bis(phosphonic acid), reference compound] | – | – | 214+/−37 | 220+/−28 | 143+/−21

Source: patent US20180362559A1, “BONE ACTIVE NITROGEN-CONTAINING BISPHOSPHONATES WITH A NEAR INFRARED FLUORESCENT LABEL” (University of Southern California, priority 2015, published 2018)
